Measured values taken from PubChem BioAssay (NCI).
Values joined by “and” are separate entries in the source; they are usually repeats but may differ in a detail not shown here. Equal entries are not always repeated.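 The compound was tested at five concentrations on cells cultured in 96-well plates, with a 48-hour exposure period. GI50 is the concentration that inhibits growth by half. TGI denotes the concentration required for complete inhibition of growth.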

Tests used:
Assay in all cases: NCI tumour cell line growth inhibition, 48 h
ACHN renal = test system: ACHN renal
CAKI-1 renal = test system: CAKI-1 renal
CCRF-CEM leukemia = test system: CCRF-CEM leukemia
HCT-15 colon = test system: HCT-15 colon
HOP-62 NSCLC = test system: HOP-62 NSCLC
IGROV1 ovarian = test system: IGROV1 ovarian
MOLT-4 leukemia = test system: MOLT-4 leukemia
RXF 393 renal = test system: RXF 393 renal
U251 CNS = test system: U251 CNS
NCI-H226 lung = test system: NCI-H226 lung

Row | Compound | TGI (ACHN renal) [µM] | TGI (CAKI-1 renal) [µM] | TGI (CCRF-CEM leukemia) [µM] | TGI (HCT-15 colon) [µM] | TGI (HOP-62 NSCLC) [µM] | TGI (IGROV1 ovarian) [µM] | TGI (MOLT-4 leukemia) [µM] | TGI (RXF 393 renal) [µM] | TGI (U251 CNS) [µM] | TGI (NCI-H226 lung) [µM] | GI50 (ACHN renal) [µM] | GI50 (CAKI-1 renal) [µM] | GI50 (CCRF-CEM leukemia) | GI50 (HCT-15 colon) [µM] | GI50 (HOP-62 NSCLC) [µM] | GI50 (IGROV1 ovarian) | GI50 (MOLT-4 leukemia) | GI50 (NCI-H226 lung) [µM] | GI50 (U251 CNS) [µM] | GI50 (RXF 393 renal) [µM]
1 | Cc1nc(-n2nc(-c3ccccc3)cc2-c2ccccc2)sc1C(=O)/C=C/c1ccccc1 | > 100 | > 100 | > 100 | > 100 | > 100 | > 100 | > 100 | > 100 | > 100 | – | – | – | – | – | – | – | – | – | – | –
2 | O=C1CNN=C(Cn2nc(-c3ccccc3)c3ccccc3c2=O)N1 | > 100 | – | > 100 | > 100 | > 100 | > 100 | > 100 | – | > 100 | > 100 | – | – | – | – | – | – | – | – | – | –
3 | Cc1ccnc(Nc2ccc([N+](=O)[O-])c(NCCN3CCOCC3)n2)c1 | 40.8 | > 100 | 20.6 | 31.5 | 71.8 | 42.4 | > 100 | – | > 100 | – | 0.00744 | 0.0052 | 0.0182 µM and 0.0265 µM | 0.0061 | 0.00657 | 0.0389 µM and 0.0579 µM | 0.0304 µM and 0.0356 µM | 0.0594 | 0.00524 | –
4 | O=C(c1ccccc1)C(Br)C(Br)c1ccccc1 (configuration not stated) | 3.38 | 3.34 | – | 9.76 | – | 12.2 | – | 3.51 | 20.9 | 7.66 | 1.86 | 1.6 | – | 2.96 | – | 2.94 µM | – | 2.94 | 8.15 | 1.89
5 | Clc1ccc2c(NCCCN3CCN(c4nc(N5CCOCC5)nc5ccccc45)CC3)ccnc2c1 | – | – | 5.73 | – | – | – | 3.9 | 3.1 | 5.15 | – | – | – | 1.8 µM | – | – | – | 1.36 µM | – | 2.15 | 1.65
6 | O=C(C(=O)c1cc(Br)ccc1O)c1cc(Br)ccc1O | 50 | 6.05 | > 100 | 24.1 | 34.9 | 8.58 | 19.9 | – | 9.94 | – | 3.75 | 2.16 | 5.5 µM | 4.05 | 6.51 | 2.57 µM | 3.28 µM | – | 2.8 | –
7 | c1ccc2c3c([nH]c2c1)C1C2CCCCN2C(c2ccncc2)N1CC3 (configuration not stated) | > 100 | > 100 | > 100 | > 100 | > 100 | – | > 100 | 83.4 | > 100 | – | – | – | – | – | – | – | – | – | – | –
8 | NC(=O)c1ncn(C2OC(CO)C(O)C2O)c1N (configuration not stated) | > 100 | > 100 | – | > 100 | > 100 | > 100 | – | > 100 | > 100 | > 100 | > 100 | > 100 | – | > 100 | > 100 | > 100 µM | – | > 100 | > 100 | > 100
9 | COC(=O)C1CCC(=O)N1/C(C)=N/NC(=O)Nc1ccc(Cl)c(Cl)c1 (configuration not stated) | > 100 | > 100 | > 100 | 68.7 | > 100 | > 100 | > 100 | > 100 | > 100 | – | – | – | – | – | – | – | – | – | – | –
10 | CCCCCCCCCCCCCCC(C)CCC(=O)O (configuration not stated) | > 100 | > 100 | – | – | > 100 | > 100 | – | > 100 | > 100 | > 100 | – | – | – | – | – | – | – | – | – | –
11 | CCSc1ncc(Br)c(Sc2nc(N)nc3nc[nH]c23)n1 | > 100 | > 100 | – | > 100 | 24.4 | 30 | > 100 | > 100 | > 100 | > 100 | 6.58 | 3.43 | – | 4.07 | 1.64 | 2.7 µM | 3.42 µM | 2.59 | 18.1 | 5.37
12 | N#CC(NC(=O)CCl)=C(Cl)Cl | 2.51 | 3.14 | 1.79 | 2.34 | 4.83 | 2.92 | – | 2.64 | 3.79 | 6.56 | 1.22 | 1.69 | 0.377 µM | 0.68 | 2.15 | 1.18 µM | – | 2.59 | 1.75 | 1.27
13 | N#CCC1(n2cc(-c3ncnc4[nH]ccc34)cn2)CN(C2CCN(C(=O)c3ccnc(C(F)(F)F)c3F)CC2)C1 | > 100 | – | > 100 | > 100 | > 100 | > 100 | > 100 | > 100 | > 100 | > 100 | > 100 | – | 54.5 µM | > 100 | > 100 | > 100 µM | 49.9 µM | 19.3 | > 100 | 28.2
14 | CC(=O)[O-].[Mn+3].[O-]c1ccc(Cl)cc1C=NCCN=Cc1cc(Cl)ccc1[O-] | > 100 | – | > 100 | > 100 | – | 54.6 | > 100 | – | > 100 | > 100 | > 100 | – | 22.2 µM | > 100 | – | 7.99 µM | > 100 µM | > 100 | > 100 | –
15 | C[C@]12CCC3=NCCN3C1=CC[C@@H]1[C@@H]2CC[C@@]2(C)[C@H]1CC[C@]2(C)O | > 100 | > 100 | – | > 100 | > 100 | > 100 | > 100 | 66.4 | > 100 | 96.3 | – | – | – | – | – | – | – | – | – | –
16 | CCCCCCCCCCCCOC1C(C(CC(=O)N2CCN(Cc3ccc4c(c3)OCO4)CC2)NS(=O)(=O)c2cc(Cl)cc(Cl)c2)OC2OC(C)(C)OC21 (configuration not stated) | > 100 | > 100 | – | > 100 | > 100 | > 100 | > 100 | 28.1 | > 100 | > 100 | 33.8 | > 100 | – | > 100 | 86.5 | 14 µM | 5.03 µM | 43.5 | 12.5 | 6.43
